Experimental data as given in ChEMBL document CHEMBL2073919, “cDNA cloning and functional characterization of rat intestinal monocarboxylate transporter” (Biochem Biophys Res Commun, 1995).

Molecular target: T1, Monocarboxylate transporter 1 (Rattus norvegicus) (UniProt P53987)
T1 sequence (whole entry): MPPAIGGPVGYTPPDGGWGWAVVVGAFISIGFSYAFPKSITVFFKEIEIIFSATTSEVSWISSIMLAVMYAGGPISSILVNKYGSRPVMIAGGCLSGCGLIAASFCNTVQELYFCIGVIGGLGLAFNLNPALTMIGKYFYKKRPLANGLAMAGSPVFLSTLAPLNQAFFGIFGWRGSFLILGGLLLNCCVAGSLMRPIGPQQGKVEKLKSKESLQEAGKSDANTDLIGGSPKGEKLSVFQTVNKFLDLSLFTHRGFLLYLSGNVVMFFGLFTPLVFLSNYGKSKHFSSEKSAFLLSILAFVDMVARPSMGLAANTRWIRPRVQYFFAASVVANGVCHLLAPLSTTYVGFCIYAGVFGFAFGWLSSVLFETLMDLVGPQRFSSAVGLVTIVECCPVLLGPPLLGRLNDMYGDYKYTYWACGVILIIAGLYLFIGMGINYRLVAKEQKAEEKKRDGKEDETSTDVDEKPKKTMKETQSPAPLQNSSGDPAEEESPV
Assay: TP_TRANSPORTER: uptake in Xenopus laevis oocytes
Format: functional, cell-based
Details: Oocyte

| Activity | Compound |
| --- | --- |
| substrate [+] | C[C@H](O)C(=O)O |
| substrate [+] | C[C@@H](O)C(=O)O |
